For one series, the system named is tumor. The settings on record: bio-distribution studies; cited from earlier work.
Series [1] deals with tumor cells lines A375, PC-3, HCT-116, A549 and DU-145. The experiment in a line: Time dependent uptake of [F-18]-labeled compounds, all cell lines together. It is filed as cell-based. The protocol: (§1) The uptake of [F-18]-labeled compounds was investigated by incubating 5×10^6 cells in 350 μl incubation buffer with 0.5 MBq [F-18]-labeled compound and taking aliquots at the various time points. The aliquots were transferred into oil, centrifuged shortly to separate cells from free compounds. The tubes were frozen, the cell pellet in the tip of the tube was cut off and radioactivity was measured in a gamma counter.
FIG. 7: Time dependent uptake of [F-18]-Fluoroethyl-Choline (FE-Ch) into the tumor cells lines A375, PC-3, HCT-116, A549 and DU-145.
FIG. 8: Time dependent uptake of [F-18]-Fluoroethyl-N-Methyl-Ethanolamine into the tumor cells lines A375, PC-3, HCT-116, A549 and DU-145.
FIG. 9: Time dependent uptake of [F-18]-Fluoroethyl-N-Ethyl-Ethanolamine into the tumor cells lines A375, PC-3, HCT-116, A549 and DU-145.
FIG. 10: Time dependent uptake of [F-18]-Fluoropropyl-N-Methyl-Ethanolamine into the tumor cells lines A375, PC-3, HCT-116, A549 and DU-145.

In series [2] the test system is DU-145 prostate cell line. The experiment in a line: Uptake of [F-18]-labeled compounds into tumor cells. It is filed as cell-based. The settings on record: 5×10^6 cells, 0.5 MBq, time point not given. The protocol: as §1
The test system of the next series is melanoma cell line A375. Described as above. In kind it is cell-based. The settings on record: 5×10^6 cells, 0.5 MBq, time point not given. Here is the method: as §1
Another series relates to PC-3 prostate cell line. The description is as above. It is filed as cell-based. The settings on record: 5×10^6 cells, 0.5 MBq, time point not given. The protocol:
as §1

The subject of series [3] is colon cancer cell line HCT-116. The series is described as above. In kind it is cell-based. The settings on record: 5×10^6 cells, 0.5 MBq, time point not given. The protocol:
as §1

For series [4], the system named is lung cancer cell line A549. Described as above. In kind it is cell-based. The settings on record: 5×10^6 cells, 0.5 MBq, time point not given. The protocol: as §1

Consider “[C-14]ethanolamine [[C-14] derivative of ethanolamine (1)]”, for which, in the series on tumor, the “tumor uptake in bio-distribution” value is recorded as “tumor uptake”.

Take [C-14]dimethyl-ethanolamine: the “tumor uptake in bio-distribution” value with tumor is “tumor uptake”.

In the case of `C[N+](C)(CCO)CC[18F]` [FE-Ch, [F-18]-Fluoroethyl-Choline], the “maximum value of uptake reached after 60 min” value in series [1] (after 60 min, all cell lines) is 5-10%. In series [1] (over the 60 minutes investigated), the “course of uptake over time” value was “slowly linear increasing”. Besides, the uptake was determined as 3% in series [2]; 4% in the series with melanoma cell line A375; 6.5% with PC-3 prostate cell line; 4% in series [3]; 4% in series [4].

Take `CN(CCO)CC[18F]` [[F-18]-Fluoroethyl-N-Methyl-Ethanolamine, [F-18]2-[(2-Fluoro-ethyl)-methyl-amino]-ethanol]: the “uptake after 30 min” value in series [1] (after 30 min, across the cell lines (FIG. 8)) is recorded as 17-30%. In addition, the uptake is 20.5% in series [2]; 22% in the series with melanoma cell line A375; 25.5% with PC-3 prostate cell line; 29% in series [3]; 17% in series [4].

The values are drawn from patent US20090130020A1, “DIAGNOSTIC AGENTS FOR POSITRON EMISSION IMAGING USING F-18 RADIO-LABELED AMINO-ALCOHOLS” (priority 2007, published 2009).
